# Reference: patent US11052154B2, “Ras protein degradation inducing molecule and pharmaceutical composition” (Tokyo University of Science Foundation, priority 2016, dated 2021)
# Test system: SW1990 cells
# Experiment: Apoptosis induction in SW1990 cells, FACS analysis (Annexin V/PI)
# Format: cell-based, human
# Conditions: SW1990 cells expressing G12D mutant K-Ras, 24 hours after addition; FIGS. 6B, 7B
# Method: In Example 7, apoptosis induction in a case where TUS-007, Ras-SOS, or Ras-SOS-NH2 was added to HeLa cells or SW1990 cells (human pancreatic cancer cells) had been added was evaluated by the FACS analysis. It is noted that in HeLa cells, the wild-type K-Ras protein (K-Ras-WT) is expressed, and in SW1990 cells, the G12D mutant K-Ras protein (K-Ras-G12D) is expressed.
# HeLa cells or SW1990 cells were seeded in a 24-well plate at a cell density of 8×10^4 cells/well, and then cultured under conditions of 37° C. and 5 vol % CO2 for 16 hours.
# After 16 hours from cell seeding, TUS-007, Ras-SOS, or Ras-SOS-NH2 were added to HeLa cells or SW1990 cells as follows. As a medium, a serum-free medium (37° C.) in which 1 mass % L-glutamine solution (Sigma-Aldrich) was added to D-MEM (high D-glucose, phenol red, sodium pyruvate (Wako Pure Chemical Industries, Ltd.)) was used. It is noted that the L-glutamine solution was added immediately before use. A DMSO solution containing TUS-007, Ras-SOS, or Ras-SOS-NH2 was mixed with the medium so that the concentration of DMSO was 1 vol %, and added to each well at 500 μL/well, and cultured under conditions of 37° C. and 5 vol % CO2. As a control, DMSO was used.
# The medium was removed 24 hours after addition of TUS-007, Ras-SOS, or Ras-SOS-NH2, and then PBS was added to wash the cells. After removing PBS, trypsin (0.25 w/v % trypsin-1 mmol/L EDTA⋅4 Na solution with phenol red) (Wako Pure Chemical Industries, Ltd.) at 37° C. was added to each well at 200 μL/well, and cultured under conditions of 37° C. and 5 vol % CO2 for 1 minute. […]
# A BD FACSCanto™ II (BD Biosciences) was used for flow cytometry. […] The proportion of Annexin V-positive and PI-negative cells was calculated using an analysis software FlowJo™ (TOMY Digital Biology Co., Ltd.), and the proportion was defined as a proportion of apoptosis cells.
# In Example 8, apoptosis induction in a case where TUS-007, Ras-SOS-NH2, or erlotinib as an anticancer agent (EGFR inhibitor) was added to HeLa cells or SW1990 cells was evaluated by FACS analysis as in Example 7.
compound,measurement,value
CCC(C)[C@H](NC(=O)CCCCCCNC(=O)[C@H](CC(C)C)NC(=O)CNC(=O)c1cc(Cl)ccc1Cl)C(=O)Nc1ccc2[nH]c(Cc3c[nH]c4ccccc34)nc2c1 (stereo in doubt) [TUS-007],apoptosis induction (proportion of Annexin V-positive and PI-negative cells),the effect of the apoptosis by TUS-007 was high at the same level as in the case of the HeLa cells
